According to article PMC8399014, “Design of Multifaceted Antioxidants: Shifting towards Anti-Inflammatory and Antihyperlipidemic Activity” (Molecules, 2021):

What was measured:
[1] = molecular target: T1, soybean lipoxygenase (LOX-3) (Glycine max, UniProt P09186); experiment: Soybean lipoxygenase (LOX-3) inhibition; format: biochemical; conditions: after 5 min of incubation; sodium linoleate 100 μM, pH 9.0; read-out: IC50 Value on LOX-3
T1 sequence (P09186 1-857): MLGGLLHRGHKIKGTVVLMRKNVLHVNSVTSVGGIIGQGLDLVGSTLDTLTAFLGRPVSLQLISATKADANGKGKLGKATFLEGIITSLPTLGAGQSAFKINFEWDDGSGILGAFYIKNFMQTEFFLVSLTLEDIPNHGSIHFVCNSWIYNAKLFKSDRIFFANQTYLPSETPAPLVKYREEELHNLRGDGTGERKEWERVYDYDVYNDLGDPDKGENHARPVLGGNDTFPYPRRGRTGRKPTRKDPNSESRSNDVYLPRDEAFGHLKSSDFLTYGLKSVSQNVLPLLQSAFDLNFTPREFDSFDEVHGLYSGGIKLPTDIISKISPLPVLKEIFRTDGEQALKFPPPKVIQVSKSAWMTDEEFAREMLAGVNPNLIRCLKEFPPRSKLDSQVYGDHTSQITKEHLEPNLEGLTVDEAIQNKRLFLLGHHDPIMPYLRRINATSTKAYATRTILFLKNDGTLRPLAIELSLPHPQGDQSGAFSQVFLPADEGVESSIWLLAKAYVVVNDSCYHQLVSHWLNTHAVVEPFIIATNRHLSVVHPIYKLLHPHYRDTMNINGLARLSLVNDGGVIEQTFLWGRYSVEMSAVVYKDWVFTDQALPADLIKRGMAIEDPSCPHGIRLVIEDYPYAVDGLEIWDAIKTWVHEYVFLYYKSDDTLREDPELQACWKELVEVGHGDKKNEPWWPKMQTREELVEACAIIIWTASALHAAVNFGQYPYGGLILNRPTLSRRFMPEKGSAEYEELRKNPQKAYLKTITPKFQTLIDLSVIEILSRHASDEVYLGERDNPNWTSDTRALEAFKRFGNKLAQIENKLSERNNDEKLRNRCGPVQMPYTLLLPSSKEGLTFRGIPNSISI
Experimental: The anti-inflammatory effect of the synthesized compounds was initially evaluated in vitro, via their ability to inhibit soybean lipoxygenase (LOX-3).
Lipoxygenase activity was determined using soybean lipoxygenase (250 U/mL) and sodium linoleate (100 μM) as substrate, in Tris–HCl buffer pH 9.0. The test compounds dissolved in methanol were added and the reaction was monitored for 5 min at 28 °C, recording absorbance at 234 nm.

[2] = test system: carrageenan-induced mouse paw edema; experiment: Carrageenan-induced mouse paw edema; format: in vivo; conditions: for inhibition in vivo at 300 µmol/kg: Mus musculus, ip, 0.30 mmol/kg i.p., 3.5 h after carrageenan, mean of 6 animals, read-out: % Edema Reduction
Experimental: In vivo anti-inflammatory activity of the synthesized compounds was evaluated as mouse paw edema reduction. Paw edema was induced by subcutaneous injection of a 2% carrageenan suspension in the right paw of mice, the left serving as the control. The activity of the tested compounds (at 0.30 mmol/kg of body weight, i.p.), expressed as % reduction in paw edema 3.5 h after carrageenan injection, is shown in Table 2. […] Moreover, compounds 9 and 10 (antioxidant derivatives of mefenamic acid) caused a 1.5–2-fold improvement in edema reduction compared to that of the parent mefenamic acid (i).
For the in vivo anti-inflammatory activity, Wistar male rats or C57BL/6 mice were injected with 0.025 mL carrageenan (2% w/v solution in saline) i.d. into the right hind paw, with the left paw serving as the control. The test compounds (300 μmol/kg) were given, i.p., after the carrageenan injection, and 3.5 h later, the produced edema was estimated as the paw weight increase. Results are expressed as percentage of the reduction in paw edema and are the means for six animals (per compound).

IC50 [1] [µM]	melting point [°C]	SMILES	inhibition in vivo at 300 µmol/kg [2] [%]	improvement in anti-inflammatory activity ([2]; compared to parent flufenamic acid (g) or flufenamol (h))
142	149 to 149.7	CC(C)(C)c1cc(COC(=O)Cc2ccccc2Nc2c(Cl)cccc2Cl)cc(C(C)(C)C)c1O [Compound 11, 3,5-di-tert-butyl-4-hydroxybenzyl 2-(2-((2,6-dichlorophenyl)amino)phenyl)acetate]	40	
		Cc1cccc(Nc2ccccc2CO)c1C [j, (2-((2,3-dimethylphenyl)amino)phenyl)methanol, reference compound]	42	
68	149.3 to 149.9	COc1ccc2c(c1)c(CC(=O)OCc1cc(C(C)(C)C)c(O)c(C(C)(C)C)c1)c(C)n2C(=O)c1ccc(Cl)cc1 [Compound 13, 3,5-di-tert-butyl-4-hydroxybenzyl 2-(1-(4-chlorobenzoyl)-5-methoxy-2-methyl-1H-indol-3-yl)acetate]	39	
> 150	141.1 to 141.8	Cc1c(Cl)cccc1Nc1ccccc1COC(=O)c1cc(C(C)(C)C)c(O)c(C(C)(C)C)c1 [Compound 6, 2-((3-chloro-2-methylphenyl)amino)benzyl 3,5-di-tert-butyl-4-hydroxybenzoate]	67	
> 200		Cc1c(Cl)cccc1Nc1ccccc1C(=O)OCc1cc(C(C)(C)C)c(O)c(C(C)(C)C)c1 [Compound 5, 3,5-di-tert-butyl-4-hydroxybenzyl 2-((3-chloro-2-methylphenyl)amino)benzoate]	55	
29		COc1ccc2cc(C(C)CO)ccc2c1 (stereo not shown) [d, 2-(6-methoxynaphthalen-2-yl)propan-1-ol, reference compound]	40	
		CC(C)Cc1ccc(C(C)CO)cc1 (stereo not shown) [b, Ibuprofenol, reference compound]	66	
122	147.8 to 149.2	CC(C)(C)c1cc(C(=O)OCCc2ccccc2Nc2c(Cl)cccc2Cl)cc(C(C)(C)C)c1O [Compound 12, 2-((2,6-dichlorophenyl)amino)phenethyl 3,5-di-tert-butyl-4-hydroxybenzoate]	54	
64	154.1 to 155	COc1ccc2cc(C(C)COC(=O)c3cc(C(C)(C)C)c(O)c(C(C)(C)C)c3)ccc2c1 (stereo not shown) [Compound 4, 2-(6-methoxynaphthalen-2-yl)propyl 3,5-di-tert-butyl-4-hydroxybenzoate]	49	
		CC(C)Cc1ccc(C(C)COC(=O)c2cc(C(C)(C)C)c(O)c(C(C)(C)C)c2)cc1 (stereo not shown) [Compound 2, 2-(4-isobutylphenyl)propyl 3,5-di-tert-butyl-4-hydroxybenzoate]	56	
22		CC(C)Cc1ccc(C(C)C(=O)OCc2cc(C(C)(C)C)c(O)c(C(C)(C)C)c2)cc1 (stereo not shown) [Compound 1, 3,5-di-tert-butyl-4-hydroxybenzyl 2-(4-isobutylphenyl)propanoate]	26	
		OCc1ccccc1Nc1cccc(C(F)(F)F)c1 [h, (2-((3-(trifluoromethyl)phenyl)amino)phenyl)methanol, reference compound]	22	
150	119.9 to 120.5	CC(C)(C)c1cc(C(=O)OCc2ccccc2Nc2cccc(C(F)(F)F)c2)cc(C(C)(C)C)c1O [Compound 8, 2-((3-(trifluoromethyl)phenyl)amino)benzyl 3,5-di-tert-butyl-4-hydroxybenzoate]	48	2–2.5 fold
	48.4 to 48.7	Cc1c(Cl)cccc1Nc1ccccc1CO [f, (2-((3-chloro-2-methylphenyl)amino)phenyl)methanol]	43	
